Measured values: PMC10486429, “Investigations Using Albumin Binders to Modify the Tissue Distribution Profile of Radiopharmaceuticals Exemplified with Folate Radioconjugates” (Cancers, 2023)

Columns and labels:
folate receptor (FR) = biological target: T1, folate receptor (FR) (Homo sapiens, UniProt P15328); assay: FR-binding affinity (KD) of 177Lu-RedFols on IGROV-1 cells; conditions: 1 h at 4 °C, read-out: KD Value (95% CI)
T1 construct: endogenous in cells; host or cells: IGROV-1 (human ovarian carcinoma cell line), intact cells on ice
Procedure: (100 µM) to block FRs on the cell surface. The IGROV-1 tumor cells were incubated for 1 h at 4 °C on a shaker, followed by removal of the supernatants and rinsing of the cells twice with PBS. After lysis of the cells with NaOH solution (1 M, 500 µL), the samples were counted for activity using a γ-counter (Wallac Wizard 1480, Perkin Elmer, Waltham, MA, USA). The cpm of the specific binding (determined by subtracting the cpm of the non-specific binding from the cpm of total binding), were plotted against the molar con-centration of the added folate radioconjugates. Non-linear regression analysis was per-formed using GraphPad Prism software (version 8) to obtain KD values from one curve of 3−5 independent experiments, each performed in triplicates.
Results: The results are reported in the main article. […]

[1] = tested on: KB tumor-bearing athymic nude mice; assay: Biodistribution of 177Lu-RedFols in KB tumor-bearing mice; format: in vivo, mouse
Procedure: Athymic nude mice (Crl:CD1-Foxn^nu) were kept on a folate-deficient rodent diet (ssniff Spezialdiäten GmbH, Soest, Germany) for at least one week prior to inoculation with the tumor cells. Biodistribution studies were performed approx. two weeks after subcutaneous inoculation with KB tumor cells (5 × 10^6 in 100 μL PBS) (Supplementary Materials Section S12). […] Data were presented as the average ± SD of n = 3−4 mice.
Purpose: Biodistribution studies were performed in KB tumor-bearing athymic nude mice (Crl:CD1-Foxnnu) in order to investigate the tissue distribution profiles of the novel radioconjugates. The aim was to compare the impact of the two different albumin binders (4-(p-iodophenyl)butanoate unit vs. 5-(p-iodophenyl)pentanoate unit), and that of the in-corporation of an AMBA linker adjacent to the albumin binder on the distribution profile of the resulting folate radioconjugates.
Methods: The methods are described in the main article. The mice were sacrificed at […]

T1 sequence (P15328 25-257): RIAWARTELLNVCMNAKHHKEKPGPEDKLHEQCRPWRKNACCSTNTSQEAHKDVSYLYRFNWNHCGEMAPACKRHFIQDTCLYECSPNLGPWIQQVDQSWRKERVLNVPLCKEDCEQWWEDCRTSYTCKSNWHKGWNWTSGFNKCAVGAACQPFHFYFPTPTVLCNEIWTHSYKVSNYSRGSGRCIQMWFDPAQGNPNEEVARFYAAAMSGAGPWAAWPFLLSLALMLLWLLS

CN1c2c(nc(N)[nH]c2=O)NCC1CNc1ccc(C(=O)NC(CCC(=O)NC(CCCCNC(=O)CN2CCN(CC(=O)[O-])CCN(CC(=O)[O-])CCN(CC(=O)[O-])CC2)C(=O)NC(CCCCNC(=O)c2ccc(CNC(=O)CCCc3ccc(I)cc3)cc2)C(=O)O)C(=O)O)cc1.[177Lu+3] (stereo not drawn) [[^177Lu]Lu-6S-RedFol-3]
Kd (folate receptor (FR)): 2.8 nM
Blood, accumulated activity ([1]; 1 h p.i.): 22 ± 1 % IA/g
Bone, accumulated activity ([1]; 1 h p.i.): 1.9 ± 0.1 % IA/g
Intestines, accumulated activity ([1]; 1 h p.i.): 2.3 ± 0.8 % IA/g
KB tumor, accumulated activity ([1]; 1 h p.i.): 7.9 ± 1.2 % IA/g
Kidneys, accumulated activity ([1]; 1 h p.i.): 12 ± 1 % IA/g
Liver, accumulated activity ([1]; 1 h p.i.): 3.7 ± 0.2 % IA/g
Lung, accumulated activity ([1]; 1 h p.i.): 9.3 ± 1.7 % IA/g
Muscle, accumulated activity ([1]; 1 h p.i.): 1.4 ± 0.1 % IA/g
Salivary glands, accumulated activity ([1]; 1 h p.i.): 4.1 ± 0.3 % IA/g
Spleen, accumulated activity ([1]; 1 h p.i.): 2.4 ± 0.2 % IA/g
Stomach, accumulated activity ([1]; 1 h p.i.): 1.8 ± 0.2 % IA/g
Tumor-to-blood ratio ([1]; 1 h p.i.): 0.36 ± 0.06
Tumor-to-kidney ratio ([1]; 1 h p.i.): 0.66 ± 0.09
Tumor-to-liver ratio ([1]; 1 h p.i.): 2.1 ± 0.4
Blood, accumulated activity ([1]; 4 h p.i.): 14 ± 1 % IA/g
Bone, accumulated activity ([1]; 4 h p.i.): 1.8 ± 0.1 % IA/g
Intestines, accumulated activity ([1]; 4 h p.i.): 1.7 ± 0.4 % IA/g
KB tumor, accumulated activity ([1]; 4 h p.i.): 16 ± 1 % IA/g
Kidneys, accumulated activity ([1]; 4 h p.i.): 11 ± 2 % IA/g
Liver, accumulated activity ([1]; 4 h p.i.): 2.4 ± 0.2 % IA/g
Lung, accumulated activity ([1]; 4 h p.i.): 7.7 ± 2.6 % IA/g
Muscle, accumulated activity ([1]; 4 h p.i.): 1.2 ± 0.2 % IA/g
Salivary glands, accumulated activity ([1]; 4 h p.i.): 2.8 ± 0.4 % IA/g
Spleen, accumulated activity ([1]; 4 h p.i.): 1.7 ± 0.2 % IA/g
Stomach, accumulated activity ([1]; 4 h p.i.): 1.3 ± 0.1 % IA/g
Tumor-to-blood ratio ([1]; 4 h p.i.): 1.1 ± 0.1
Tumor-to-kidney ratio ([1]; 4 h p.i.): 1.4 ± 0.2
Tumor-to-liver ratio ([1]; 4 h p.i.): 6.5 ± 0.2
Blood, accumulated activity ([1]; 24 h p.i.): 8.7 ± 1.1 % IA/g
Bone, accumulated activity ([1]; 24 h p.i.): 1.2 ± 0.2 % IA/g
Intestines, accumulated activity ([1]; 24 h p.i.): 1.0 ± 0.1 % IA/g
KB tumor, accumulated activity ([1]; 24 h p.i.): 41 ± 2 % IA/g
Kidneys, accumulated activity ([1]; 24 h p.i.): 30 ± 1 % IA/g
Liver, accumulated activity ([1]; 24 h p.i.): 1.8 ± 0.4 % IA/g
Lung, accumulated activity ([1]; 24 h p.i.): 4.8 ± 0.7 % IA/g
Muscle, accumulated activity ([1]; 24 h p.i.): 1.0 ± 0.2 % IA/g
Salivary glands, accumulated activity ([1]; 24 h p.i.): 2.3 ± 0.4 % IA/g
Spleen, accumulated activity ([1]; 24 h p.i.): 2.3 ± 0.1 % IA/g
Stomach, accumulated activity ([1]; 24 h p.i.): 1.1 ± 0.1 % IA/g
Tumor-to-blood ratio ([1]; 24 h p.i.): 4.7 ± 0.3
Tumor-to-kidney ratio ([1]; 24 h p.i.): 1.3 ± 0.1
Tumor-to-liver ratio ([1]; 24 h p.i.): 24 ± 4
